{
  "source": "patent US4175125A",
  "about": "“Method for treating methicillin resistant staphylococcus aureus” (Eli Lilly and Company, priority 1978, dated 1979)",
  "key": {"[1]": {"test_system": "Staphylococcus aureus cultures", "assay": "Agar dilution MIC, Example 13 compound vs methicillin resistant Staphylococcus aureus", "assay_type": "cell-based", "description": "The table which follows gives the minimum inhibitory concentration (MIC) in micrograms of compound per milliliter of culture (μg/ml), in comparison with similar MIC values for the known antibiotics methicillin, cephalothin and cephaloridine against the same strains of bacteria."}, "A. flavus": {"test_system": "A. flavus", "assay": "In vitro MIC in agar, additional microorganisms", "assay_type": "cell-based", "conditions": "Aspergillus flavus", "description": "(§1) The compound of Example 13 gave the following in vitro minimum inhibitory concentrations (MIC values), in microgram/milliliter of agar (μg/ml.) against the following additional microorganisms"}, "B. bronchiseptica": {"test_system": "B. bronchiseptica", "assay": "In vitro MIC in agar, additional microorganisms", "assay_type": "cell-based", "conditions": "Bordetella bronchiseptica", "description": "as §1"}, "C. freundii CF17": {"test_system": "C. freundii CF17", "assay": "In vitro MIC in agar, additional microorganisms", "assay_type": "cell-based", "conditions": "Citrobacter freundii", "description": "as §1"}, "C. tropicalis A17": {"test_system": "C. tropicalis A17", "assay": "In vitro MIC in agar, additional microorganisms", "assay_type": "cell-based", "conditions": "Candida tropicalis", "description": "as §1"}, "C. ulmi": {"test_system": "C. ulmi", "assay": "In vitro MIC in agar, additional microorganisms", "assay_type": "cell-based", "description": "as §1"}, "E. aerogenes EB17": {"test_system": "E. aerogenes EB17", "assay": "In vitro MIC in agar, additional microorganisms", "assay_type": "cell-based", "conditions": "Klebsiella aerogenes", "description": "as §1"}, "E. amylovora": {"test_system": "E. amylovora", "assay": "In vitro MIC in agar, additional microorganisms", "assay_type": "cell-based", "conditions": "Erwinia amylovora", "description": "as §1"}, "E. coli EC14": {"test_system": "E. coli EC14", "assay": "In vitro MIC in agar, additional microorganisms", "assay_type": "cell-based", "conditions": "Escherichia coli", "description": "as §1"}, "H. pneumoniae KL14": {"test_system": "H. pneumoniae KL14", "assay": "In vitro MIC in agar, additional microorganisms", "assay_type": "cell-based", "conditions": "Klebsiella pneumoniae", "description": "as §1"}, "P. aeroginosa X239": {"test_system": "P. aeroginosa X239", "assay": "In vitro MIC in agar, additional microorganisms", "assay_type": "cell-based", "description": "as §1"}, "[2]": {"test_system": "P. morganii, indole positive", "assay": "In vitro MIC in agar, additional microorganisms", "assay_type": "cell-based", "conditions": "Morganella morganii", "description": "as §1"}, "P. solenaecarum X185": {"test_system": "P. solenaecarum X185", "assay": "In vitro MIC in agar, additional microorganisms", "assay_type": "cell-based", "description": "as §1"}, "S. aureus": {"test_system": "S. aureus", "assay": "In vitro MIC in agar, additional microorganisms", "assay_type": "cell-based", "conditions": "Staphylococcus aureus", "description": "as §1"}, "S. facalis X66": {"test_system": "S. facalis X66", "assay": "In vitro MIC in agar, additional microorganisms", "assay_type": "cell-based", "description": "as §1"}, "S. marcescens SE3": {"test_system": "S. marcescens SE3", "assay": "In vitro MIC in agar, additional microorganisms", "assay_type": "cell-based", "conditions": "Serratia marcescens", "description": "as §1"}, "S. typhimurium": {"test_system": "S. typhimurium", "assay": "In vitro MIC in agar, additional microorganisms", "assay_type": "cell-based", "conditions": "Salmonella enterica", "description": "as §1"}, "T. mentagrophytes 27": {"test_system": "T. mentagrophytes 27", "assay": "In vitro MIC in agar, additional microorganisms", "assay_type": "cell-based", "conditions": "Trichophyton mentagrophytes", "description": "as §1"}, "S. typhosa SA12": {"test_system": "S. typhosa SA12", "assay": "In vitro MIC in agar, additional microorganisms", "assay_type": "cell-based"}, "[3]": {"test_system": "Streptococcus pyogenes C203", "assay": "MIC in broth against Streptococcus pyogenes C203", "assay_type": "cell-based", "description": "The MIC for the compound of Example 13 against Streptococcus pyogenes C203 in broth was 0.008 μg/ml."}, "[4]": {"conditions": "water"}, "physchem": {"assay": "physchem", "conditions": "water"}},
  "data": [
    {"smiles": "Cc1nnc(SCC2=C(C(=O)[O-])N3C(=O)C(NC(=O)CSc4ccc(F)c(Cl)c4)[C@H]3SC2)s1.[Na+]", "note": "(stereo partly shown)", "values": [
      {"measurement": "MIC", "setting": "[1]; culture 3055 (control), Trypticase Soy Agar with 4.5% NaCl added (5% NaCl)", "value": 0.03, "unit": "µg/mL"},
      {"measurement": "MIC", "setting": "[1]; culture 3055 (control), Trypticase Soy Agar, 0.5% NaCl", "value": 0.03, "unit": "µg/mL"},
      {"measurement": "MIC", "setting": "[1]; culture 3130, Trypticase Soy Agar with 4.5% NaCl added (5% NaCl)", "value": 0.25, "unit": "µg/mL"},
      {"measurement": "MIC", "setting": "[1]; culture 3130, Trypticase Soy Agar, 0.5% NaCl", "value": 0.5, "unit": "µg/mL"},
      {"measurement": "MIC", "setting": "[1]; culture 3131, Trypticase Soy Agar with 4.5% NaCl added (5% NaCl)", "value": 0.25, "unit": "µg/mL"},
      {"measurement": "MIC", "setting": "[1]; culture 3131, Trypticase Soy Agar, 0.5% NaCl", "value": 0.25, "unit": "µg/mL"},
      {"measurement": "MIC", "setting": "[1]; culture 3132, Trypticase Soy Agar with 4.5% NaCl added (5% NaCl)", "value": 0.13, "unit": "µg/mL"},
      {"measurement": "MIC", "setting": "[1]; culture 3132, Trypticase Soy Agar, 0.5% NaCl", "value": 0.13, "unit": "µg/mL"},
      {"measurement": "MIC", "setting": "[1]; culture 3133, Trypticase Soy Agar with 4.5% NaCl added (5% NaCl)", "value": 0.13, "unit": "µg/mL"},
      {"measurement": "MIC", "setting": "[1]; culture 3133, Trypticase Soy Agar, 0.5% NaCl", "value": 0.13, "unit": "µg/mL"},
      {"measurement": "MIC", "setting": "[1]; culture 3134, Trypticase Soy Agar with 4.5% NaCl added (5% NaCl)", "value": 0.25, "unit": "µg/mL"},
      {"measurement": "MIC", "setting": "[1]; culture 3134, Trypticase Soy Agar, 0.5% NaCl", "value": 1, "unit": "µg/mL"},
      {"measurement": "MIC", "setting": "[1]; culture 3135, Trypticase Soy Agar with 4.5% NaCl added (5% NaCl)", "value": 0.5, "unit": "µg/mL"},
      {"measurement": "MIC", "setting": "[1]; culture 3135, Trypticase Soy Agar, 0.5% NaCl", "value": 0.5, "unit": "µg/mL"},
      {"measurement": "MIC", "setting": "[1]; culture 3136, Trypticase Soy Agar with 4.5% NaCl added (5% NaCl)", "value": 0.5, "unit": "µg/mL"},
      {"measurement": "MIC", "setting": "[1]; culture 3136, Trypticase Soy Agar, 0.5% NaCl", "value": 0.25, "unit": "µg/mL"},
      {"measurement": "MIC", "setting": "[1]; culture 3137, Trypticase Soy Agar with 4.5% NaCl added (5% NaCl)", "value": 1, "unit": "µg/mL"},
      {"measurement": "MIC", "setting": "[1]; culture 3137, Trypticase Soy Agar, 0.5% NaCl", "value": 1, "unit": "µg/mL"},
      {"measurement": "MIC", "setting": "[1]; culture 3138, Trypticase Soy Agar with 4.5% NaCl added (5% NaCl)", "value": 0.5, "unit": "µg/mL"},
      {"measurement": "MIC", "setting": "[1]; culture 3138, Trypticase Soy Agar, 0.5% NaCl", "value": 1, "unit": "µg/mL"},
      {"measurement": "MIC", "setting": "[1]; culture 3139, Trypticase Soy Agar with 4.5% NaCl added (5% NaCl)", "value": 0.03, "unit": "µg/mL"},
      {"measurement": "MIC", "setting": "[1]; culture 3139, Trypticase Soy Agar, 0.5% NaCl", "value": 0.25, "unit": "µg/mL"},
      {"measurement": "MIC", "setting": "[1]; culture H232 (control), Trypticase Soy Agar with 4.5% NaCl added (5% NaCl)", "value": 0.06, "unit": "µg/mL"},
      {"measurement": "MIC", "setting": "[1]; culture H232 (control), Trypticase Soy Agar, 0.5% NaCl", "value": 0.06, "unit": "µg/mL"},
      {"measurement": "MIC", "setting": "[1]; culture Havarmak 1136501, Trypticase Soy Agar with 4.5% NaCl added (5% NaCl)", "value": 1, "unit": "µg/mL"},
      {"measurement": "MIC", "setting": "[1]; culture Havarmak 1136501, Trypticase Soy Agar, 0.5% NaCl", "value": 0.5, "unit": "µg/mL"},
      {"measurement": "MIC", "setting": "[1]; culture S 61, Trypticase Soy Agar with 4.5% NaCl added (5% NaCl)", "value": 0.5, "unit": "µg/mL"},
      {"measurement": "MIC", "setting": "[1]; culture S 61, Trypticase Soy Agar, 0.5% NaCl", "value": 0.5, "unit": "µg/mL"},
      {"measurement": "MIC", "setting": "[1]; culture Seattle 966, Trypticase Soy Agar with 4.5% NaCl added (5% NaCl)", "value": 0.06, "unit": "µg/mL"},
      {"measurement": "MIC", "setting": "[1]; culture Seattle 966, Trypticase Soy Agar, 0.5% NaCl", "value": 0.25, "unit": "µg/mL"},
      {"measurement": "MIC", "setting": "A. flavus", "value": "> 128", "unit": "µg/mL"},
      {"measurement": "MIC", "setting": "B. bronchiseptica", "value": "> 128", "unit": "µg/mL"},
      {"measurement": "MIC", "setting": "C. freundii CF17", "value": "> 128", "unit": "µg/mL"},
      {"measurement": "MIC", "setting": "C. tropicalis A17", "value": "> 128", "unit": "µg/mL"},
      {"measurement": "MIC", "setting": "C. ulmi", "value": "> 128", "unit": "µg/mL"},
      {"measurement": "MIC", "setting": "E. aerogenes EB17", "value": 128, "unit": "µg/mL"},
      {"measurement": "MIC", "setting": "E. amylovora", "value": 64, "unit": "µg/mL"},
      {"measurement": "MIC", "setting": "E. coli EC14", "value": 64, "unit": "µg/mL"},
      {"measurement": "MIC", "setting": "H. pneumoniae KL14", "value": 64, "unit": "µg/mL"},
      {"measurement": "MIC", "setting": "P. aeroginosa X239", "value": "> 128", "unit": "µg/mL"},
      {"measurement": "MIC", "setting": "[2]", "value": "> 128", "unit": "µg/mL"},
      {"measurement": "MIC", "setting": "P. solenaecarum X185", "value": "> 128", "unit": "µg/mL"},
      {"measurement": "MIC", "setting": "S. aureus; S. aureus 3055 (penicillin G susceptible)", "value": 0.031, "unit": "µg/mL"},
      {"measurement": "MIC", "setting": "S. aureus; S. aureus 3074 (Pen G. resist.)", "value": 0.062, "unit": "µg/mL"},
      {"measurement": "MIC", "setting": "S. facalis X66", "value": 400, "unit": "µg/mL"},
      {"measurement": "MIC", "setting": "S. marcescens SE3", "value": "> 128", "unit": "µg/mL"},
      {"measurement": "MIC", "setting": "S. typhimurium", "value": 128, "unit": "µg/mL"},
      {"measurement": "MIC", "setting": "T. mentagrophytes 27", "value": "> 128", "unit": "µg/mL"},
      {"measurement": "MIC", "setting": "S. typhosa SA12", "value": 32, "unit": "µg/mL"},
      {"measurement": "MIC", "setting": "[3]", "value": 8, "unit": "ng/mL"},
      {"measurement": "solubility upon warming (in words)", "setting": "[4]", "value": "increases"},
      {"measurement": "solubility", "setting": "physchem", "value": "> 100", "unit": "mg/mL"}
    ]}
  ]
}
